pEC50: −log10 of the molar value. Counter-ions that a name gives are not always drawn.

The target of the experiment is T1, recombinant human ALX receptor (Homo sapiens, UniProt P25090).
T1 construct: expressed in transfected cells; host or cells: HEK293 (HEK293-hALXR-Gα16)
T1 sequence (P25090 1-351): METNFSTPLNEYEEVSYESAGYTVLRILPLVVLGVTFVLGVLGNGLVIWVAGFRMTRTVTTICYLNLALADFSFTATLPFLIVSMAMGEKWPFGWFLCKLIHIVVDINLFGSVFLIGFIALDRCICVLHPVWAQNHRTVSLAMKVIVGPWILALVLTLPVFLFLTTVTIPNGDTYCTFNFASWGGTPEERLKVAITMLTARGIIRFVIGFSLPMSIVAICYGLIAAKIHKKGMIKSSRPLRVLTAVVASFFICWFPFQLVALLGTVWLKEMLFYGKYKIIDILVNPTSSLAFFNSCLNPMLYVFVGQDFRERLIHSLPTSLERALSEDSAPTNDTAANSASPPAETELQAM
Nature of the experiment: Intracellular calcium measurements (FLIPR), ALX receptor agonistic activity. The experiment is classed as cell-based. The settings on record: HEK293-hALXR-Gα16 cells, Fluo-4 calcium signal, normalized to WKYMVm 10 nM. The procedure, abridged:
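Agonist-induced calcium flux was read by FLIPR (488/540 nm) as baseline-subtracted peak emission, expressed relative to WKYMVm at 10 nM final. Cells used: HEK293-hALXR-Gα16, dye-loaded 60 min at 37° C. with 1 μM Fluo-4 AM before compound dose-response addition.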
A general note: Calcium flux is commonly read through the fluorescence of an indicator in the cells.
In the case of `COc1ccc(CC(NC(=O)Nc2ccnn2-c2ccccc2)c2nc3ccccc3[nH]2)cc1` (centres unmarked) [Example 412, 1-(1-(1H-benzo[d]imidazol-2-yl)-2-(4-methoxyphenyl)ethyl)-3-(1-phenyl-1H-pyrazol-5-yl)urea], the pEC50 is 6.80.

`CC1(O)CCC(NC(=O)NC(Cc2ccc(Br)cc2F)c2nc3ccccc3[nH]2)CC1` (single isomer, unassigned; ent-1) [Example 264, 1-(1-(1H-Benzo[d]imidazol-2-yl)-2-(4-bromo-2-fluorophenyl)ethyl)-3-(trans-4-hydroxy-4-methylcyclohexyl)urea (ent-1)]: the pEC50 is 8.05.

`COc1ccc(C[C@@H](NC(=O)NC2CCc3ccccc3C2)c2nc3ccccc3[nH]2)cc1` (stereo partly drawn) [Example 15, 1-((R)-1-(1H-Benzo[d]imidazol-2-yl)-2-(4-methoxyphenyl)ethyl)-3-(1,2,3,4-tetrahydronaphthalen-2-yl)urea hydrochloride]: the pEC50 is 7.23.

As for `CCC(CC)NC(=O)N[C@H](Cc1ccc(OC)cc1)c1nc2ccccc2[nH]1` [Example 97, (R)-1-(1-(1H-Benzo[d]imidazol-2-yl)-2-(4-methoxyphenyl)ethyl)-3-(pentan-3-yl)urea], the pEC50 is 6.91.

On to `COc1ccc(CC(NC(=O)NC23CCC(O)(CC2)CC3)c2nc3ccccc3[nH]2)c(F)c1` (single isomer, unassigned; ent-1) [Example 261, 1-(1-(1H-Benzo[d]imidazol-2-yl)-2-(2-fluoro-4-methoxyphenyl)ethyl)-3-(4-hydroxybicyclo[2.2.2]octan-1-yl)urea (ent-1)], for which the pEC50 was 8.49.

Regarding `COc1ccc(C[C@@H](NC(=O)N2CCN(C)CC2)c2nc3ccccc3[nH]2)cc1` [Example 136, (R)—N-(1-(1H-Benzo[d]imidazol-2-yl)-2-(4-methoxyphenyl)ethyl)-4-methylpiperazine-1-carboxamide], the pEC50 is 6.41.

`COc1ccc(C[C@@H](NC(=O)N[C@H]2CNC[C@@H]2F)c2nc3ccccc3[nH]2)cc1` (relative stereo) [Example 184, 1-((R)-1-(1H-Benzo[d]imidazol-2-yl)-2-(4-methoxyphenyl)ethyl)-3-((3S*,4S*)-4-fluoropyrrolidin-3-yl)urea]: the pEC50 is 6.08.

Turning to `CCn1nccc1NC(=O)NC(Cc1ccc(OC)cc1)c1nc2ccccc2[nH]1` (centres unmarked) [Example 417, 1-(1-(1H-benzo[d]imidazol-2-yl)-2-(4-methoxyphenyl)ethyl)-3-(1-ethyl-1H-pyrazol-5-yl)urea], the pEC50 is 7.21.

As to `COc1ccc(C[C@@H](NC(=O)N[C@H]2CC[C@@H](C(=O)OC)CC2)c2nc3ccccc3[nH]2)cc1` [Example 223, cis-Methyl 4-(3-((R)-1-(1H-benzo[d]imidazol-2-yl)-2-(4-methoxyphenyl)ethyl)ureido)cyclohexanecarboxylate], the pEC50 was 6.75.

As for `COc1ccc(C[C@@H](NC(=O)N[C@@H]2CCN(C(C)=O)C2)c2nc3ccccc3[nH]2)cc1` [Example 142, 1-((R)-1-(1H-Benzo[d]imidazol-2-yl)-2-(4-methoxyphenyl)ethyl)-3-((R)-1-acetylpyrrolidin-3-yl)urea], the pEC50 was 6.51.

For the molecule `COc1ccc(C[C@@H](NC(=O)NC2CC3CCC2C3)c2nc3ccccc3[nH]2)cc1` (stereo partly drawn) [Example 25, 1-((R)-1-(1H-Benzo[d]imidazol-2-yl)-2-(4-methoxyphenyl)ethyl)-3-(bicyclo[2.2.1]heptan-2-yl)urea], the pEC50 is 8.01.

With `COc1ccc(C[C@@H](NC(=O)NC2(C)COC2)c2nc3ccccc3[nH]2)cc1` [Example 109, (R)-1-(1-(1H-Benzo[d]imidazol-2-yl)-2-(4-methoxyphenyl)ethyl)-3-(3-methyloxetan-3-yl)urea], the pEC50 is 6.20.

Consider `O=C(NC(Cc1ccc(C(F)F)cc1)c1nc2ccccc2[nH]1)N[C@H]1CC[C@H](O)CC1` (single isomer, unassigned; ent-2) [Example 369, 1-(1-(1H-Benzo[d]imidazol-2-yl)-2-(4-(difluoromethyl)phenyl)ethyl)-3-(trans-4-hydroxycyclohexyl)urea (ent-2)], for which the negative-log EC50 (pEC50) is 8.14.

For `COC[C@@H](NC(=O)N[C@H](Cc1ccc(OC)cc1)c1nc2ccccc2[nH]1)c1ccccc1` [Example 200, 1-((R)-1-(1H-Benzo[d]imidazol-2-yl)-2-(4-methoxyphenyl)ethyl)-3-((S)-2-methoxy-1-phenylethyl)urea], the pEC50 is 7.28.

As to `CCOC(=O)[C@@H]1CCCC[C@H]1NC(=O)N[C@H](Cc1ccc(OC)cc1)c1nc2ccccc2[nH]1` (relative stereo) [Example 161, (1R*,2R*)-Ethyl 2-(3-((R)-1-(1H-benzo[d]imidazol-2-yl)-2-(4-methoxyphenyl)ethyl)ureido)cyclohexanecarboxylate], the pEC50 was 9.22.

As to `COc1ccc(CC(NC(=O)N[C@H]2CC[C@H](O)CC2)c2nc3ccccc3[nH]2)c(F)c1` (single isomer, unassigned; ent-2) [Example 310, 1-(1-(1H-Benzo[d]imidazol-2-yl)-2-(2-fluoro-4-methoxyphenyl)ethyl)-3-(trans-4-hydroxycyclohexyl)urea (ent-2)], the pEC50 is 8.48.

Take `COc1ccc(CC(NC(=O)Nc2ccnn2-c2cccc(OC)c2)c2nc3ccccc3[nH]2)cc1` (centres unmarked) [Example 419, 1-(1-(1H-benzo[d]imidazol-2-yl)-2-(4-methoxyphenyl)ethyl)-3-(1-(3-methoxyphenyl)-1H-pyrazol-5-yl)urea]: the pEC50 is 7.25.

On to `COc1ccc(C[C@@H](NC(=O)NCc2ccccc2C#N)c2nc3ccccc3[nH]2)cc1` [Example 211, (R)-1-(1-(1H-Benzo[d]imidazol-2-yl)-2-(4-methoxyphenyl)ethyl)-3-(2-cyanobenzyl)urea], for which the pEC50 was 6.78.

For `COc1ccc(CC(NC(=O)N[C@H]2CC[C@H](O)CC2)c2nc3ccc(F)cc3[nH]2)c(F)c1` (single isomer, unassigned; ent-2) [Example 370, 1-(1-(6-Fluoro-1H-benzo[d]imidazol-2-yl)-2-(2-fluoro-4-methoxyphenyl)ethyl)-3-(trans-4-hydroxycyclohexyl)urea (ent-2)], the pEC50 was 6.14.

As for `COc1ccc(C[C@@H](NC(=O)N2CCC3CN(C(=O)OC(C)(C)C)CC32)c2nc3ccccc3[nH]2)cc1` (stereo partly drawn) [Example 120, tert-Butyl 1-(((R)-1-(1H-benzo[d]imidazol-2-yl)-2-(4-methoxyphenyl)ethyl)carbamoyl)hexahydropyrrolo[3,4-b]pyrrole-5(1H)-carboxylate], the pEC50 was 7.24.

With `COc1ccc(CC(NC(=O)NCc2cccc(OC)c2)c2nc3ccccc3[nH]2)cc1` (centres unmarked) [Example 39, 1-(1-(1H-Benzo[d]imidazol-2-yl)-2-(4-methoxyphenyl)ethyl)-3-(3-methoxybenzyl)urea], the pEC50 is 6.29.

Take `COc1ccc(CC(NC(=O)Nc2ccnn2-c2ccccc2OC)c2nc3ccccc3[nH]2)cc1` (centres unmarked) [Example 421, 1-(1-(1H-benzo[d]imidazol-2-yl)-2-(4-methoxyphenyl)ethyl)-3-(1-(2-methoxyphenyl)-1H-pyrazol-5-yl)urea]: the pEC50 is 7.34.

`COc1ccc(CC(NC(=O)Nc2ccnn2-c2ccc(C(C)C)cc2)c2nc3ccccc3[nH]2)cc1` (centres unmarked) [Example 407, 1-(1-(1H-benzo[d]imidazol-2-yl)-2-(4-methoxyphenyl)ethyl)-3-(1-(4-isopropylphenyl)-1H-pyrazol-5-yl)urea]: the pEC50 is 6.81.

`COc1ccc(C[C@@H](NC(=O)N[C@@H](C)c2cccc(OC)c2)c2nc3ccccc3[nH]2)cc1` [Example 323, 1-((R)-1-(1H-Benzo[d]imidazol-2-yl)-2-(4-methoxyphenyl)ethyl)-3-((S)-1-(3-methoxyphenyl)ethyl)urea]: the pEC50 is 7.36.

As to `COc1ccc(C[C@@H](NC(=O)NC23CCC(O)(CC2)CC3)c2nc3ccc(Cl)cc3[nH]2)cc1` [Example 192, (R)-1-(1-(6-Chloro-1H-benzo[d]imidazol-2-yl)-2-(4-methoxyphenyl)ethyl)-3-(4-hydroxybicyclo[2.2.2]octan-1-yl)urea], the pEC50 is 10.00.

In the case of `O=C(NC(Cc1ccc(Br)cc1F)c1nc2ccccc2[nH]1)N[C@H]1CC[C@H](O)CC1` (relative stereo) [Example 188, 1-(1-(1H-Benzo[d]imidazol-2-yl)-2-(4-bromo-2-fluorophenyl)ethyl)-3-(trans-4-hydroxycyclohexyl)urea], the pEC50 was 8.43.

`COc1ccc(C[C@@H](NC(=O)NCC2CCCO2)c2nc3ccccc3[nH]2)cc1` (stereo partly drawn) [Example 57, 1-((R)-1-(1H-Benzo[d]imidazol-2-yl)-2-(4-methoxyphenyl)ethyl)-3-((tetrahydrofuran-2-yl)methyl)urea hydrochloride]: the pEC50 is 7.09.

For `COc1ccc(CC(NC(=O)NCc2cccnc2OC)c2nc3ccccc3[nH]2)cc1` (centres unmarked) [Example 385, 1-(1-(1H-Benzo[d]imidazol-2-yl)-2-(4-methoxyphenyl)ethyl)-3-((2-methoxypyridin-3-yl)methyl)urea], the pEC50 was 5.99.

`COc1cc(F)c(CC(NC(=O)NC23CCC(O)(CC2)CC3)c2nc3ccccc3[nH]2)cc1F` (centres unmarked) [Example 249, 1-(1-(1H-Benzo[d]imidazol-2-yl)-2-(2,5-difluoro-4-methoxyphenyl)ethyl)-3-(4-hydroxybicyclo[2.2.2]octan-1-yl)urea]: the pEC50 is 8.38.

By pEC50 is commonly meant the negative decadic logarithm of the EC50, by convention in mol/L.
